These are literature values, as cited in US20190167675A1, “METHODS AND COMPOSITIONS FOR APPETITE CONTROL AND WEIGHT MANAGEMENT” (SHANGHAI YAO YUAN BIOTECHNOLOGY CO., LTD., priority 2016, published 2019).

Read-outs that look alike come from different tables or passages of the source.

Series [1] concerns the target T1, ASIC3 (Homo sapiens, UniProt Q9UHC3).
T1 sequence (Q9UHC3 1-531): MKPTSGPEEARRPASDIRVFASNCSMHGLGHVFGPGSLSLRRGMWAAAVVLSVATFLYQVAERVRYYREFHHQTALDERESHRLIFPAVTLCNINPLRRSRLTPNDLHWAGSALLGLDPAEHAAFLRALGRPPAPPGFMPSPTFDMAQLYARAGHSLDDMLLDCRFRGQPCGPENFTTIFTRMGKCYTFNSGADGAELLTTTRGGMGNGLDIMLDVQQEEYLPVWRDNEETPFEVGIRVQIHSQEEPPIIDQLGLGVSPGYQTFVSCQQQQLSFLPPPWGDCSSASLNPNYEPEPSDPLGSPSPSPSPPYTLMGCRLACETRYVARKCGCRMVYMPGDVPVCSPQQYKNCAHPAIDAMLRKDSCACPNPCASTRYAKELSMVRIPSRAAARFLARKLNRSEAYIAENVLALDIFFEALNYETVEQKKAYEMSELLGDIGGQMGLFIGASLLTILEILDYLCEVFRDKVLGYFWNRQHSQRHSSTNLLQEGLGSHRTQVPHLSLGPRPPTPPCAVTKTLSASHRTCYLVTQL
The conditions noted are these: cited from earlier work.

Series [2] has as its system ASIC3. The conditions noted are these: in vivo; cited from earlier work.
For series [3], the target named is T2, ENaC (Rattus norvegicus, UniProt P37089+P37090+P37091).
T2 construct: amiloride-sensitive Na+ currents (via ENaC) in rat, dog, and pig AEC type II cells; endogenous in cells; host or cells: rat AEC type II cells
T2 sequence (P37089 1-698): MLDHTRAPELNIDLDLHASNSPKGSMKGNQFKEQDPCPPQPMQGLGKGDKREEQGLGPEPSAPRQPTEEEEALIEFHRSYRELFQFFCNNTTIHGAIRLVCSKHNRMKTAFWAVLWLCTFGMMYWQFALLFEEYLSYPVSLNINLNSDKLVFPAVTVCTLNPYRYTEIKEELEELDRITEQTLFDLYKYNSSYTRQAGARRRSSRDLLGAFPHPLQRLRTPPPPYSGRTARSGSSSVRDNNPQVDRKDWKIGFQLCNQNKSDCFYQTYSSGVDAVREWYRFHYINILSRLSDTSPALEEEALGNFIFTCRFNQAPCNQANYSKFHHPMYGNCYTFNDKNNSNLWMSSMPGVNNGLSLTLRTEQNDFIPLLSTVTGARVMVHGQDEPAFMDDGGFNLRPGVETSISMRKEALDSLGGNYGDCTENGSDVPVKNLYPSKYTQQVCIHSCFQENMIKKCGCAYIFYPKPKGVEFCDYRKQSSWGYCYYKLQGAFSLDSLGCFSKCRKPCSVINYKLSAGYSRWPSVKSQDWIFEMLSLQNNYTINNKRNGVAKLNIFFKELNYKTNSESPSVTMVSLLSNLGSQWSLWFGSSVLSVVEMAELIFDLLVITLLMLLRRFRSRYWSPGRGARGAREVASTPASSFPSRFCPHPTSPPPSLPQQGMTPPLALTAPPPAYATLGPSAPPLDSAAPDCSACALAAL
T2 sequence (P37090 1-638): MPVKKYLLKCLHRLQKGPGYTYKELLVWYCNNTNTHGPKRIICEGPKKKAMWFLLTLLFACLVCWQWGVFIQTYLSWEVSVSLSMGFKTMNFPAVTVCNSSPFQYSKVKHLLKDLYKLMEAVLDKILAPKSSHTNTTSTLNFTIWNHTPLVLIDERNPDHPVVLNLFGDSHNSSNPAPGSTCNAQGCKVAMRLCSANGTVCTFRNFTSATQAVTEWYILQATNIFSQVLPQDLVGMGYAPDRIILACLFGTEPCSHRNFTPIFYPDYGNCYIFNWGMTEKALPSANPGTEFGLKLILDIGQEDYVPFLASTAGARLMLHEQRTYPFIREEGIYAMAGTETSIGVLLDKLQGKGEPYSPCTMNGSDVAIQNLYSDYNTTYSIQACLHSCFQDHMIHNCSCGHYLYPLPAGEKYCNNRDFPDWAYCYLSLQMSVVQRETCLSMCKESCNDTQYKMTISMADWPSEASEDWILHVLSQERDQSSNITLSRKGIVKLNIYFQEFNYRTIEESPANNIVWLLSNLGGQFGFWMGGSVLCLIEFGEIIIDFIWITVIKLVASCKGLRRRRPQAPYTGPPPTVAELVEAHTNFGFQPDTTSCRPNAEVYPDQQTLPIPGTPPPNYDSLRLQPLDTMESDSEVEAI
T2 sequence (P37091 1-650): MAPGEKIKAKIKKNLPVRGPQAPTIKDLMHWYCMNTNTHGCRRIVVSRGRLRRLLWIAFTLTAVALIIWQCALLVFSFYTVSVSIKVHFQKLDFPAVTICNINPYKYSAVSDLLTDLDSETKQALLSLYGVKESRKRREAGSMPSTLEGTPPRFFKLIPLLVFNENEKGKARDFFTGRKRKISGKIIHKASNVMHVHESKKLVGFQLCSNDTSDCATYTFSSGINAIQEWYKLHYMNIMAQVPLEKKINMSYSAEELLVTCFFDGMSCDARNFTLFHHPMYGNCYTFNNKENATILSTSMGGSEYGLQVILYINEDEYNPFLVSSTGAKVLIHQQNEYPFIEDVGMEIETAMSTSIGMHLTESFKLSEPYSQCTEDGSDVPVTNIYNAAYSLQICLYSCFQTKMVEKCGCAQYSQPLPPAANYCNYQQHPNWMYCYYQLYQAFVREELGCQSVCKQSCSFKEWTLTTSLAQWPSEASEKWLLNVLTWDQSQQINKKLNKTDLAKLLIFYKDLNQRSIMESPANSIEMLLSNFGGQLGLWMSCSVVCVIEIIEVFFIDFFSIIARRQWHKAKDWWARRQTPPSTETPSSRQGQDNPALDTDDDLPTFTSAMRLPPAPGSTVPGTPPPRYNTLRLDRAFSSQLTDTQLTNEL
The following applies: rat AEC type II cells; cited from earlier work.

For series [4], the system named is ENaC. The conditions noted are these: dog AEC type II cells; cited from earlier work.
The test system of series [5] is ENaC. The following applies: pig AEC type II cells; cited from earlier work.

On to `Cc1nc(NC(=N)N)nc2ccccc12` [GMQ, 2-guanidine-4-methylquinazoline], for which, at ASIC3 [1], the ASIC3 currents result is on record as “induces persistent ASIC3 currents”. For the same compound, the pain related behavior result in the series on ASIC3 [2] is “induces pain related behavior”.
On to “AP301: ENaC activator; human TNF-α-derived cyclic peptide composed of 17 natural amino acids”, for which the “increase of amiloride-sensitive Na+ currents versus baseline” value is “about 9 fold” in the series with ENaC [3], roughly 13 fold with ENaC [4] and roughly 16 fold in the series with ENaC [5].
